Structures are written as SMILES. pIC50: −log10 of the molar value. Where two headings read alike, the source gives them in different places.

A word on the pIC50: it is the negative decadic logarithm of the IC50, by convention in mol/L. In general, IC50 refers to the concentration that inhibits the measured activity by half.

For assay [1], the system named is NF-kB activity upon TLR2 stimulation with PAM3CSK4 in THP1-Blue NF-kB SEAP reporter cells. As to the kind of experiment: THP1-Blue NF-kB SEAP reporter assay, TLR2 stimulation with PAM3CSK4. As to conditions: for pIC50: read-out: IC50 vs. Pam3CSK4 (TLR2-mediated NF-kB activation). It counts as cell-based, human. For orientation: In a reporter assay the amount or activity of a reporter protein is the signal.

The test system of assay [2] is MDS/AML cell lines and patient-derived samples. As to the kind of experiment: Clonogenic assay (colony formation in methylcellulose). As to conditions: for Inhibition of colony formation: MDSL, TF1, AML1714, AML1294, methylcellulose. It counts as cell-based, human.
For assay [3], the system named is IRAK1 phosphorylation in MDS/AML cells. As to the kind of experiment: Immunoblotting for phospho-IRAK1. The following applies: MDSL cells and patient-derived AML(1714), 10 μM, 24 hours. It counts as cell-based, human.
The conditions of assay [4]: early phase trials, cited from earlier work.
Assay [5] relates to NF-kB activity upon IL-1β stimulation (IL-1R) in THP1 NF-kB reporter cells. As to the kind of experiment: THP1 NF-kB reporter assay, IL-1β stimulation. It counts as cell-based, human.
In the next assay the test system is THP1 and MDSL cells. As to the kind of experiment: Growth curves with IRAK4 inhibitors. It counts as cell-based, human. As to conditions: IRAK1KO versus WT MDSL (10 μM) and THP1 (20 μM).
Setting [6] is: Homo sapiens, THP-1, THP1 NF-kB reporter cells.
Where [7] appears, read: THP1 NF-kB reporter cells, result in words.

Regarding `Cc1cc(-c2nc(C(=O)Nc3cc4oc(N5CCOCC5)nc4nc3N3CC[C@@H](O)C3)co2)ccn1` [CA-4948, emavusertib], the pIC50 in assay [1] (setting [6]) is 6.30. Further, the “Sensitivity of IRAK1KO MDS/AML cells (growth, colony formation)” value in assay [2] (IRAK1KO versus WT THP1 and MDSL cells) is “more sensitive”. The “Inhibition of colony formation” value in assay [2] was “dose-dependent, yet incomplete, inhibition of colony formation”. In addition, the IRAK1 phosphorylation entry in assay [3] is listed as “increased IRAK1 phosphorylation”. Besides, in assay [4] (HR-MDS and AML patients), the “Complete or partial response rates” value is ~40%. In addition, in assay [4], the “AML patients with spliceosome mutations reaching CR or CRh” value was 40% and the “HR-MDS patients achieving a CR” value was 57%.
Consider `CC[C@@H]1[C@H](F)C(=O)N[C@@H]1COc1nccc2cc(C(N)=O)c(OC)cc12` [PF-06650833, Zimlovisertib], for which the pIC50 is 8.14 in assay [1] (setting [6]); 8.15 in assay [1] (THP1 NF-kB reporter cells); 8.24 in assay [5] (Homo sapiens, THP-1, THP1 NF-kB reporter cells, read-out: IC50 vs. IL-1β (NF-kB activation)). For the same compound, the IC50 in assay [1] (Homo sapiens, THP-1, Table 1, unit nM, read-out: THP-1 NFkB PAM IC50) came out at 496 nM; in assay [5] (Homo sapiens, THP-1, Table 1, unit nM, read-out: THP-1 NFkB IL1B IC50), 678 nM. For the same compound, the “Suppression of NF-kB signaling through TLR2” value in assay [1] (setting [7]) was “fully suppress”. Also, the “LOG (PAM)” value in assay [1] (Table 1, log of PAM IC50) was 2.70. Besides, the “Span (extent of suppression of signaling through the IL-1R)” value in assay [5] (THP1 NF-kB reporter cells, IL-1β) was 75%. Also, the “Suppression of NF-kB signaling through the IL-1 receptor” value in assay [5] (setting [7]) is recorded as “do not fully suppress”. Also, in assay [5] (Table 1, log of IL1B IC50), the “LOG (IL1B)” value amounted to 2.83. Also, the “Inhibition of colony formation” value in assay [2] was “inhibition of colony formation by MDSL and TF1 cells but was less effective at suppressing the patient-derived AML samples”. Further, the “Sensitivity of IRAK1KO MDS/AML cells (growth curves)” value in the assay on THP1 and MDSL cells is recorded as “A similar effect was also observed”.
